`Cc1ccc(-n2nc(C(C)(C)C)cc2NC(=O)Nc2ccc(F)cc2)cc1C` [Example 32, 1-(5-tert-Butyl-2-(3,4-dimethylphenyl)-2H-pyrazol-3-yl)-3-(4-fluorophenyl)urea] showed a melting point of 223 to 225 °C.

Source: patent publication US6432995B1, “Aromatic heterocyclic compounds and their use as anti-inflammatory agents” (Boehringer Ingelheim Pharmaceuticals, Inc., priority 1997, dated 2002)
